Measured values taken from US8163476B2, “CUDR as biomarker for cancer progression and therapeutic response” (The Chinese University of Hong Kong, priority 2004, dated 2012).

How the values were obtained:
[1] = tested on: stable CUDR transfectant of A431 cells; assay: DNA fragmentation assay (apoptotic response) in stable CUDR transfectants of A431 cells; type: cell-based, human; conditions: CUDR transfectants versus A431 cells transfected with empty vector; drug for 3 days; FIGS. 5B and 5D
Method: (§1) A431 cells were transfected with a vector carrying the full-length CUDR cDNA or an empty vector. After transfection, the cells were selected with G418 and individual colony was picked for establishment as stable transfectants. The stable transfectants were maintained in culture supplemented with G418. The response of cells to drugs was measured by both MTT assay and DNA fragmentation assay.
DNA fragmentation assay, one of the common methods, was conducted to assess the apoptotic response of cells upon treatment with anticancer drug. The cells were seeded in 60 mm Petri dish for 2 days and then exposed to various concentrations of DOX or Taxol for 3 days. After incubation, the cells were lysed in lysis buffer containing Tris-HCl, SDS, EDTA and protease K and incubated at 45° C. for 2 h. After phenol/chloroform extraction, DNA was precipitated with sodium acetate and 100% ethanol. After overnight digestion with RNase A at 37° C., 40 μg of the DNA sample were separated on 1.5% EtBr staining agarose gel. The DNA fragmentation pattern was viewed with UV light box. The presence of the “DNA laddering” pattern indicates the induction of apoptosis in cells; the more extensive the laddering pattern, the more significant the apoptosis induction. AN: control cells, A431 cells transfected with an empty vector; AG: stable CUDR transfectant of A431 cells; and M: 100 bp marker.

[2] = tested on: A431 parent cells, A5A and A10A cells; assay: Response of A431 sublines to doxorubicin by MTT assay; type: cell-based, human; conditions: A431/A5A and A10A cells versus A431 parent cells; incubated with drug for 5 days; FIG. 1
Method: Responses of A431 parent cells, A5A and A10A cells to doxorubicin (DOX) were compared in this Example.
A431/A5A cells were A431 cells survived from treatment with 5 μg/ml of DOX, and A10A cells were derived from A5A cells survived from treatment with 10 μg/ml of DOX.
Cells were seeded in 96-well plates for 2 days and incubated with various concentrations of DOX for 5 days. At the end of the incubation, the cells were incubated in 50 μl of a 0.1 mg/ml solution of 3-[4,5-dimethylthiaol-2-yl]-2,5-diphenyltetrazolium bromide (MTT) at 37° C. for 3 h and lysed in 150 μl of dimethyl sulfoxide at room temperature for 30 min. The absorbance of each well was measured at 580 nm in a microplate reader. The survival percentage of cells was calculated as the ratio between cells with drug treatment and cells without drug treatment.

[3] = tested on: stable CUDR transfectant of A431 cells; assay: Response of stable CUDR transfectants of A431 cells to DOX and Taxol by MTT assay; type: cell-based, human; conditions: CUDR transfectants versus A431 cells transfected with empty vector; drug for 5 days; FIGS. 5A and 5C
Method: as §1
For the MTT assay, the cells were seeded in a 96-well plate for 2 days and incubated with various concentrations of DOX or Taxol for 5 days. At the end of the incubation, the cells were incubated with 50 μl of a 0.1 mg/ml solution of 3-[4,5-dimethylthiaol-2-yl]-2,5-diphenyltetrazolium bromide (MTT) at 37° C. for 3 h and lysed in 150 μl of dimethyl sulfoxide at room temperature for 30 min. The absorbance of each well was measured at 580 nm in a microplate reader. The percentage of cell survival was calculated as the ratio between cells with drug treatment and cells without drug treatment. The MTT results for DOX and Taxol were shown in FIGS. 5A and 5C respectively. ◯: control cells, i.e. A431 cells transfected with empty vector; ▴: stable CUDR transfectant of A431 cells. Error bar: standard deviation.

[4] = tested on: Human squamous carcinoma A431 cells; assay: Doxorubicin sensitivity of A431 cells after transfection with full-length CUDR or CUDR antisense oligonucleotides (MTT assay); type: cell-based; conditions: plasmid 24 h or oligonucleotides 4 h, then DOX for 48 h
Method: The role of CUDR in sensitivity of cells to doxorubicin was examined. Human squamous carcinoma A431 cells were transfected with either plasmid carrying the full-length CUDR cDNA or antisense oligonucleotides of CUDR. The cells were seeded in a 96-well plate for 4 h before incubation with full-length CUDR plasmid DNA for 24 h or CUDR oligonucleotides for 4 h. After transfection, the cells were incubated with DOX for 48 h. The cell survival was measured by MTT assay. Furthermore, the CUDR mRNA level after transfection was examined by Northern blot analysis.
In FIG. 4A, ---o--- (C): cells without transfection; -▪- (CUDR): cells transfected with full length CUDR. In FIG. 4B, ---o--- (C): Cells without transfection treatment; -●- (S): transfection with sense CUDR oligonucleotides; -▪- (AS): transfection with CUDR antisense oligonucleotides.
Antisense sequence for CUDR was: 5′-[…]-3′ (nt1347-1367) (SEQ ID NO:9) and the sequence for the sense oligonucleotides was complementary to that of the antisense.

Compound | apoptotic response of cells upon drug treatment (DNA laddering) [1] | response of cells to drug (survival percentage of cells) [2] | response of cells to drug (percentage of cell survival) [3] | effect of transfection on doxorubicin sensitivity of cells (cell survival) ([4]; FIG. 4) | effect of transfection on doxorubicin sensitivity of cells (cell survival) ([4]; FIG. 4, listed as antisense CUDR nucleic acids)
COc1cccc2c1C(=O)c1c(O)c3c(c(O)c1C2=O)C[C@@](O)(C(=O)CO)C[C@@H]3O[C@H]1C[C@H](N)[C@H](O)[C@H](C)O1 [DOX, doxorubicin] | more refractory to the apoptosis | more resistant | more resistant |  | 
CC(=O)O[C@H]1C(=O)[C@@]2(C)[C@H]([C@H](OC(=O)c3ccccc3)[C@]3(O)C[C@H](OC(=O)[C@H](O)[C@@H](NC(=O)c4ccccc4)c4ccccc4)C(C)=C1C3(C)C)[C@]1(OC(C)=O)CO[C@@H]1C[C@@H]2O [Taxol] | more refractory to the apoptosis |  | more resistant |  | 
antisense CUDR oligonucleotides: Antisense sequence for CUDR: 5′-CAAGGTGCCAGTTAGCGTAT-3′ (nt1347-1367) (SEQ ID NO:9) (listed as DNA, chemistry not given here) |  |  |  | increased the DOX sensitivity of cells | increase the drug sensitivity of cancer cells
